Assay results taken from patent publication US9550796B2, “Pyrrolopyrrolone derivatives and their use as BET inhibitors” (NOVARTIS AG, priority 2013, dated 2017).

Assays:
THP-1 = assay: Cell growth inhibition assay (CellTiter-Glo), THP-1; assay type: cell-based, human; conditions: THP-1 cells, 4 days; for GI50: Homo sapiens, 96 h, half-maximal growth inhibition; for THP-1 TGI: total growth inhibition
Outline: (§1)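 A separate day 0 plate allows cytotoxic and cytostatic effects to be distinguished: viable-cell ATP after 4-day compound treatment (top 10 μM, 3-fold steps) is expressed relative to it. DMSO-only wells count as 100% and medium-only wells as −100%.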

BRD3 = BRD3 (Homo sapiens (Human), UniProt Q15059); assay: TR-FRET in-vitro binding assay for BRD3; conditions: 45 nM His-Brd3(20-477), acetyl-histone H4 (AcK 5, 8, 12, 16) peptide
Outline: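 Binding is detected by TR-FRET following incubation for 35 minutes at 30° C.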

MV-4-11 = assay: Cell growth inhibition assay (CellTiter-Glo), MV-4-11; assay type: cell-based, human; conditions: MV-4-11 cells, 4 days; for GI50: Homo sapiens, MV4-11, 96 h, half-maximal growth inhibition; for MV-4-11 TGI: total growth inhibition
Outline: as §1

BRD4-NUT-fusion = BRD4-NUT-fusion (Homo sapiens, UniProt O60885); assay: Nut-foci formation assay in HCC2494 NUT midline carcinoma cells; assay type: cell-based; conditions: 24 hours, nuclear BRD4-NUT foci by immunofluorescence microscopy, read-out: HCS Brd4-NUT IC50
Description: Nut-Foci Formation Assay […] Compound-mediated inhibition of BRD4 activity can be monitored by quantification of the number and intensity of nuclear BRD4-NUT foci using automated immunofluorescence microscopy. Briefly, 5000 cells in 20 μL fresh medium are seeded into Poly-D-Lysine-precoated 384-well plates and incubated overnight at 37° C. and 5% CO2, followed by addition of 5 μl medium containing compound dilutions at 5-fold their final intended concentration. […] Assay plates can be imaged using the appropriate filter sets on the Cellomics VTi automated fluorescence microscopy platform (ThermoFisher Scientific) and the population average of the number of NUT-foci per nucleus is quantified using the Cellomics Spot Detection BioApplication image analysis algorithm (ThermoFisher Scientific). […] Compound concentrations leading to half-maximal (IC50) inhibition of the aforementioned readout parameters are determined using standard four parameter curve fitting.

Sequence of BRD3 (Q15059 20-477): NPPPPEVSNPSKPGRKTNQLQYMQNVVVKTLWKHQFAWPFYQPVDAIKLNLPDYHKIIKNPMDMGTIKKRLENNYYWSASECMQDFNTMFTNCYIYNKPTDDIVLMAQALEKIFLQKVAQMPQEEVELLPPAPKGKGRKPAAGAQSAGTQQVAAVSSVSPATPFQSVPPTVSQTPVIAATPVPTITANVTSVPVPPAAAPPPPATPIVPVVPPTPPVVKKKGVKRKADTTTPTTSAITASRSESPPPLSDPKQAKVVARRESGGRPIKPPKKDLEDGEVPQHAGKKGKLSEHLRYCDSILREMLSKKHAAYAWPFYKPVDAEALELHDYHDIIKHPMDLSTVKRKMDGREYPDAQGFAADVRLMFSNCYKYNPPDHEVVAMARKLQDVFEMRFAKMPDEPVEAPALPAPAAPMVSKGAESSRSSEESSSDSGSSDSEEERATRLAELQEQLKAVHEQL

Question: Which results are given for `Cc1cn(C)c2c1C(=O)N(c1cc(C)c3nnc(C)n3c1)C2c1ccc(Cl)cc1` (stereo not drawn) [Example 33, 6-(4-chlorophenyl)-5-(3,8-dimethyl-[1,2,4]triazolo[4,3-a]pyridin-6-yl)-1,3-di methyl-5,6-dihydropyrrolo[3,4-b]pyrrol-4(1H)-one]?
Answer: GI50 (THP-1): 17.4 nM; THP-1 TGI (THP-1): 35.6 nM; IC50 (BRD3): 35 nM; GI50 (MV-4-11): 7.71 nM; MV-4-11 TGI (MV-4-11): 20.05 nM; IC50 (BRD4-NUT-fusion): 9.55 nM

Question: Which GI50 (THP-1) does the source give for `Cc1cn(C)c2c1C(=O)N(c1cc(C)c(=O)n(C)c1)C2c1ccc(Cl)cc1` (stereo not drawn) [Example 34, 6-(4-chlorophenyl)-5-(1,5-dimethyl-6-oxo-1,6-dihydropyridin-3-yl)-1,3-dimethyl-5,6-dihydropyrrolo[3,4-b]pyrrol-4(1H)-one] here?
Answer: 43.8 nM

Question: What about the “THP-1 TGI” value (THP-1) of the same compound?
Answer: 99.4 nM

Question: What about the IC50 (BRD3) of the same compound?
Answer: 32 nM

Question: And the GI50 (MV-4-11)?
Answer: 19.4 nM

Question: What about the “MV-4-11 TGI” value (MV-4-11) of the same compound?
Answer: 48.3 nM

Question: And the IC50 (BRD4-NUT-fusion)?
Answer: 26.8 nM

Question: What does the source list for `COc1ncc(-c2cc3c(n2C)C(c2ccc(Cl)cc2)N(c2cc(Cl)c(=O)n(C)c2)C3=O)c(OC)n1` (stereo not drawn) [Example 38, 5-(5-chloro-1-methyl-6-oxo-1,6-dihydropyridin-3-yl)-6-(4-chlorophenyl)-2-(2,4-dimethoxypyrimidin-5-yl)-1-methyl-5,6-dihydropyrrolo[3,4-b]pyrrol-4(1H)-one]?
Answer: GI50 (THP-1): 37.5 nM; THP-1 TGI (THP-1): 72.7 nM; IC50 (BRD3): 59 nM; GI50 (MV-4-11): 29.4 nM; MV-4-11 TGI (MV-4-11): 51.5 nM; IC50 (BRD4-NUT-fusion): 72.5 nM

Question: With `Cn1c(-c2ccc(=O)n(C)c2)cc2c1C(c1ccc(Cl)cc1)N(c1cc(Cl)c(=O)n(C)c1)C2=O` (stereo not drawn) [Example 42, 5-(5-chloro-1-methyl-6-oxo-1,6-dihydropyridin-3-yl)-6-(4-chlorophenyl)-1-methyl-2-(1-methyl-6-oxo-1,6-dihydropyridin-3-yl)-5,6-dihydropyrrolo[3,4-b]pyrrol-4(1H)-one] as the compound, how does the GI50 (THP-1) read?
Answer: 811 nM

Question: And the “THP-1 TGI” value (THP-1)?
Answer: 1470 nM

Question: What about the IC50 (BRD3) of the same compound?
Answer: 53 nM

Question: What about the GI50 (MV-4-11) of the same compound?
Answer: 227 nM

Question: And the “MV-4-11 TGI” value (MV-4-11)?
Answer: 348 nM

Question: What about the IC50 (BRD4-NUT-fusion) of the same compound?
Answer: 4970 nM

Question: How did the GI50 (THP-1) turn out when `Cc1cc(N2C(=O)c3cc(-c4ccn(C)c(=O)c4)n(C)c3C2c2ccc(Cl)cc2)cn(C)c1=O` (stereo not drawn) [Example 45, 6-(4-chlorophenyl)-5-(1,5-dimethyl-6-oxo-1,6-dihydropyridin-3-yl)-1-methyl-2-(1-methyl-2-oxo-1,2-dihydropyridin-4-yl)-5,6-dihydropyrrolo[3,4-b]pyrrol-4(1H)-one] was run?
Answer: 109 nM

Question: What about the “THP-1 TGI” value (THP-1) of the same compound?
Answer: 213 nM

Question: What about the IC50 (BRD3) of the same compound?
Answer: 18.5 nM

Question: What about the GI50 (MV-4-11) of the same compound?
Answer: 55.9 nM

Question: And the “MV-4-11 TGI” value (MV-4-11)?
Answer: 96.7 nM

Question: And the IC50 (BRD4-NUT-fusion)?
Answer: 97.3 nM

Question: For `COc1ncc(-c2cc3c(n2C)[C@@H](c2ccc(Cl)cc2)N(c2cc(C)c(=O)n(C)c2)C3=O)c(OC)n1` [Example 54, (R)-6-(4-chlorophenyl)-2-(2,4-dimethoxypyrimidin-5-yl)-5-(1,5-dimethyl-6-oxo-1,6-dihydropyridin-3-yl)-1-methyl-5,6-dihydropyrrolo[3,4-b]pyrrol-4(1H)-one], which GI50 (THP-1) is on record?
Answer: 23.3 nM

Question: What about the “THP-1 TGI” value (THP-1) of the same compound?
Answer: 41.5 nM

Question: And the IC50 (BRD3)?
Answer: 28 nM

Question: What about the GI50 (MV-4-11) of the same compound?
Answer: 8.9 nM

Question: And the “MV-4-11 TGI” value (MV-4-11)?
Answer: 18 nM

Question: What about the IC50 (BRD4-NUT-fusion) of the same compound?
Answer: 26.7 nM

Question: `COc1ncc(-c2cc3c(n2C)[C@@H](c2ccc(Cl)cc2)N(c2cc(C)c(=O)n(C)c2)C3=O)cn1` [Example 56, (R)-6-(4-chlorophenyl)-5-(1,5-dimethyl-6-oxo-1,6-dihydropyridin-3-yl)-2-(2-methoxypyrimidin-5-yl)-1-methyl-5,6-dihydropyrrolo[3,4-b]pyrrol-4(1H)-one] was tested. Which GI50 (THP-1) did it give?
Answer: 30.3 nM

Question: And the “THP-1 TGI” value (THP-1)?
Answer: 50.7 nM

Question: And the IC50 (BRD3)?
Answer: 22 nM

Question: And the GI50 (MV-4-11)?
Answer: 24.8 nM

Question: And the “MV-4-11 TGI” value (MV-4-11)?
Answer: 44.5 nM

Question: What about the IC50 (BRD4-NUT-fusion) of the same compound?
Answer: 39.1 nM

Question: How did the GI50 (THP-1) turn out when `Cc1cc2c(n1C)[C@@H](c1ccc(Cl)cc1)N(c1cc(Cl)c(=O)n(C)c1)C2=O` [Example 75, (R)-5-(5-chloro-1-methyl-6-oxo-1,6-dihydropyridin-3-yl)-6-(4-chlorophenyl)-1,2-dimethyl-5,6-dihydropyrrolo[3,4-b]pyrrol-4(1H)-one] was run?
Answer: 74.3 nM

Question: What about the “THP-1 TGI” value (THP-1) of the same compound?
Answer: 167 nM

Question: And the IC50 (BRD3)?
Answer: 53.3 nM

Question: And the GI50 (MV-4-11)?
Answer: 54.8 nM

Question: What about the “MV-4-11 TGI” value (MV-4-11) of the same compound?
Answer: 102 nM

Question: And the IC50 (BRD4-NUT-fusion)?
Answer: 11.2 nM

Question: For `Cn1ccc2c1[C@@H](c1ccc(Cl)cc1)N(c1cc(Cl)c(=O)n(C)c1)C2=O` [Example 77, (R)-5-(5-chloro-1-methyl-6-oxo-1,6-dihydropyridin-3-yl)-6-(4-chlorophenyl)-1-methyl-5,6-dihydropyrrolo[3,4-b]pyrrol-4(1H)-one], which GI50 (THP-1) is on record?
Answer: 88.9 nM

Question: What about the “THP-1 TGI” value (THP-1) of the same compound?
Answer: 146 nM

Question: And the IC50 (BRD3)?
Answer: 94.5 nM

Question: What about the GI50 (MV-4-11) of the same compound?
Answer: 57.6 nM

Question: What about the “MV-4-11 TGI” value (MV-4-11) of the same compound?
Answer: 96.3 nM

Question: What about the IC50 (BRD4-NUT-fusion) of the same compound?
Answer: 10.1 nM
